# Measured values: patent publication US11078170B2 (Assembly Biosciences, Inc., priority 2017, dated 2021)
# Tested on: HBV viral production from HepAD38 cells
# Test: Activity of test compounds on viral production from HepAD38 cells (viral load by qPCR of HBV core sequence in supernatant)
# Assay type: cell-based
# Conditions: Hepatitis B virus, 120 h, 5 days incubation, HBV DNA in supernatant by qPCR, top concentration 10 μM, read-out: Viral Load EC50 Activity range
# Procedure: Assay Measuring Activity of Test Compounds on Viral Production from HepAD38 Cells
# HepAD38 cells grown in a T-150 flask (Corning, cat #: 430825) with Growth Medium (DMEM/F12 (1:1) (Hyclone, cat #: SH30023.02), 1×Pen/Strep (Invitrogen, cat #: 15140-122), 10% FBS (Tissue Culture Biologics, cat #: 101), 250 μg/mL G418 (Alfa Aesar, cat #: J62671), 1 μg/mL Tetracycline (Teknova, cat #: T3320)) were detached with 0.25% trypsin-EDTA (Invitrogen, cat #: 25200-056). Tetracycline-free treatment medium (15 mL DMEM/F12 (1:1) 1× Pen/step, with 2% FBS, Tet-system approved (Clontech, cat #: 631106) were then added to mix, transferred into a 50 ml conical tube (Falcon, cat #: 21008-918) and spun at 1300 rpm for 5 min. Pelleted cells were then re-suspended/washed with 50 mL of 1×DPBS (Invitrogen, cat #: 14190-136) 2 times and 50 mL treatment medium twice. HepAD38 cells were then re-suspended with 10 mL of treatment medium, syringed and counted. Wells of 96-well clear bottom TC plate (Corning, cat #: 3904) were seeded at 50,000 cells/well in 180 μL of treatment medium, and 20 μL of either 10% DMSO (Sigma, cat #: D4540) as controls or a 10× solution of test compounds in 10% DMSO in treatment media was added for a final compound concentration starting at 10 μM, and plates were incubated in 5% CO2 incubator at 37° C. for 5 days.
# Subsequently viral load production was assayed by quantitative PCR (qPCR) of the HBV core sequence. PCR reaction mixture containing forward primers HBV-f 5′-CTGTGCCTTGGGTGGCTTT-3′, which is SEQ ID NO 1, (IDT DNA), Reverse primers HBV-r 5′-[…]-3′, which is SEQ ID NO 2 (IDT DNA), Fluorescent TaqMan™ Probes HBV-probe 5′-FAM/AGCTCCAAA/ZEN/[…]/3IABkFQ-3′ (IDT DNA), which is SEQ ID NO 3, 10 μL/well of PerfeCTa® qPCR ToughMix® (Quanta Biosciences, Cat #: 95114-05K), and 6 µL/well of DEPC water (Alfa Aesar, cat #: J62087) was prepared. Four μL of supernatant was added to 16 μL of the reaction mixture in a qPCR plate (Applied Biosytems, Cat #: 4309849), sealed with a film (Applied Biosystems, Cat #: 4311971), centrifuged for a few seconds, and subsequently run on an Applied Biosystems VIIA7. The PCR mixture was incubated at 45° C. for 5 min, then 95° C. for 10 min, followed by 40 cycles of 10 seconds at 95° C. and 20 seconds at 60° C. Viral load was quantified against known HBV DNA standards by using ViiA™ 7 Software. Viral load in the supernatant from wells with treated cells were compared against viral load in supernatant from DMSO control wells (≥3 per plate). Cell viability assay was performed with CellTiter-Glo Luminescent Cell Viability Assay (Promega, cat #: G7573) with modification. Mixed appropriate amount of CellTiter-Glo (CTG) 1×DPBS in a 1:1 ratio, added 100 uL of the mixture to each well followed completely removal of all supernatant in each well without touching cell surface. Incubated the plate at room temperature for 10 min on an orbital shaker, and then read the plate with a plate reader (TECAN M1000 or Envision). EC50 or CC50 values were calculated through curve-fitting of the four-parameter nonlinear-logistic-regression model (GraphPad Prism or Dotmatics). CC50 values were all >10 μM.
row,Compound,EC50
1,"CN1C(C(=O)Nc2ccc(F)cc2)CC(c2cccs2)NS1(=O)=O (racemic) [HBV-CSU-007, Cis-N-(4-Fluorophenyl)-2-methyl-5-(thiophen-2-yl)-1,2,6-thiadiazinane-3-carboxamide 1,1-dioxide]",< 1000 nM
2,"O=C(Nc1ccc(F)c(Cl)c1)C1CC(c2nccs2)NS(=O)(=O)N1CCN1CCOCC1 (racemic) [HBV-CSU-082, Cis-N-(3-Chloro-4-fluorophenyl)-2-(2-morpholinoethyl)-5-(thiazol-2-yl)-1,2,6-thiadiazinane-3-carboxamide 1,1-dioxide]",> 5000 nM
3,"CN1[C@H](C(=O)Nc2ccc(F)c(Cl)c2)C[C@H](c2ccc(-c3ccc(C(F)(F)F)nc3)s2)NS1(=O)=O [HBV-CSU-158-ISO-I, Cis-N-(3-chloro-4-fluorophenyl)-2-methyl-5-(5-(6-(trifluoromethyl)pyridin-3-yl)thiophen-2-yl)-1,2,6-thiadiazinane-3-carboxamide 1,1-dioxide]",< 1000 nM
4,"CN(C)CCN1C(C(=O)Nc2ccc(F)c(Cl)c2)CC(c2nccs2)NS1(=O)=O (racemic) [HBV-CSU-074, Cis-N-(3-Chloro-4-fluorophenyl)-2-(2-(dimethylamino)ethyl)-5-(thiazol-2-yl)-1,2,6-thiadiazinane-3-carboxamide 1,1-dioxide]",> 5000 nM
5,"COCCN1C(C(=O)Nc2ccc(F)c(Cl)c2)CC(c2cccs2)NS1(=O)=O (racemic) [HBV-CSU-025, Cis-N-(3-chloro-4-fluorophenyl)-2-(2-methoxyethyl)-5-(thiophen-2-yl)-1,2,6-thiadiazinane-3-carboxamide 1,1-dioxide]",< 1000 nM
6,"CN1[C@@H](C(=O)Nc2ccc(F)c(Cl)c2)C[C@@H](c2cc(Cc3ccccc3)cs2)NS1(=O)=O [HBV-CSU-149-ISO-II, Cis-(4-benzylthiophen-2-yl)-N-(3-chloro-4-fluorophenyl)-2-methyl-1,2,6-thiadiazinane-3-carboxamide 1,1-dioxide]",1000 to 5000 nM
7,"CN1C(C(=O)Nc2ccc(F)c(Cl)c2)CC(c2ccc(F)cn2)NS1(=O)=O (stereo not drawn) [HBV-CSU-032, Cis-N-(3-Chloro-4-fluorophenyl)-5-(5-fluoropyridin-2-yl)-2-methyl-1,2,6-thiadiazinane-3-carboxamide 1,1-dioxide]",< 1000 nM
8,"CN1[C@@H](C(=O)Nc2ccc(F)c(Cl)c2)C[C@@H](c2ccc(F)c(F)c2)NS1(=O)=O [HBV-CSU-230-ISO-II, Cis-N-(3-Chloro-4-fluorophenyl)-5-(3,4-difluorophenyl)-2-methyl-1,2,6-thiadiazinane-3-carboxamide 1,1-dioxide]",> 5000 nM
9,"CN1[C@@H](C(=O)Nc2ccc(F)c(Cl)c2)C[C@@H](c2cc(-c3cnn(C(F)(F)F)c3)cs2)NS1(=O)=O (relative stereo) [HBV-CSU-325-ISO-II, Cis-N-(3-Chloro-4-fluorophenyl)-2-methyl-5-(4-(1-(trifluoromethyl)-1H-pyrazol-4-yl)thiophen-2-yl)-1,2,6-thiadiazinane-3-carboxamide 1,1-dioxide]",> 5000 nM
10,"CN1[C@@H](C(=O)Nc2ccc(F)c(Cl)c2)C[C@@H](c2ccc(C(=O)O)cc2)NS1(=O)=O [HBV-CSU-218-ISO-II, Cis-4-(5-((3-Chloro-4-fluorophenyl)carbamoyl)-6-methyl-1,1-dioxido-1,2,6-thiadiazinan-3-yl)benzoic acid]",1000 to 5000 nM
11,"CN1[C@H](C(=O)Nc2ccc(F)c(Cl)c2)C[C@H](c2ccc(-c3ccc(NS(C)(=O)=O)cc3)s2)NS1(=O)=O [HBV-CSU-163-ISO-I, Cis-N-(3-chloro-4-fluorophenyl)-2-methyl-5-(5-(4-(methylsulfonamido)phenyl)thiophen-2-yl)-1,2,6-thiadiazinane-3-carboxamide 1,1-dioxide]",< 1000 nM
12,"[2H]C1[C@]([2H])(c2ncc(-c3cn(C([2H])([2H])[2H])cn3)s2)NS(=O)(=O)N(C)[C@]1([2H])C(=O)Nc1ccc(F)c(Cl)c1 (stereo in doubt) [HBV-CSU-341-ISO-I, Cis-N-(3-Chloro-4-fluorophenyl)-2-methyl-5-(5-(1-(methyl-d3)-1H-imidazol-4-yl)thiazol-2-yl)-1,2,6-thiadiazinane-3,4,5-d3-3-carboxamide 1,1-dioxide]",< 1000 nM
13,"CN1[C@H](C(=O)Nc2ccc(F)c(Cl)c2)C[C@H](c2ncc(-c3ccc(F)cc3)s2)NS1(=O)=O [HBV-CSU-248-ISO-I, Cis-N-(3-Chloro-4-fluorophenyl)-5-(5-(4-fluorophenyl)thiazol-2-yl)-2-methyl-1,2,6-thiadiazinane-3-carboxamide 1,1-dioxide]",< 1000 nM
14,"Cc1cc(C2CC(C(=O)Nc3ccc(F)c(Cl)c3)N(C)S(=O)(=O)N2)sc1-c1cnn(C)c1 (racemic) [HBV-CSU-300, Cis-N-(3-Chloro-4-fluorophenyl)-5-(4-methyl-5-(1-methyl-1H-pyrazol-4-yl)thiophen-2-yl)-2-methyl-1,2,6-thiadiazinane-3-carboxamide 1,1-dioxide]",< 1000 nM
15,"CN1C(C(=O)Nc2ccc(F)c(Cl)c2)CC(c2ccc(-c3nncn3C)s2)NS1(=O)=O (racemic) [HBV-CSU-324, Cis-N-(3-Chloro-4-fluorophenyl)-2-methyl-5-(5-(4-methyl-4H-1,2,4-triazol-3-yl)thiophen-2-yl)-1,2,6-thiadiazinane-3-carboxamide 1,1-dioxide]",< 1000 nM
16,"CN1C(C(=O)Nc2ccc(F)c(Cl)c2)CC(c2ccc(-c3cccnc3)s2)NS1(=O)=O (racemic) [HBV-CSU-159, Cis-N-(3-chloro-4-fluorophenyl)-2-methyl-5-(5-(pyridin-3-yl)thiophen-2-yl)-1,2,6-thiadiazinane-3-carboxamide 1,1-dioxide]",< 1000 nM
17,"CN1[C@H](C(=O)Nc2ccc(F)c(Cl)c2)C[C@H](c2cc(-c3cncs3)cs2)NS1(=O)=O [HBV-CSU-286-ISO-I, Cis-N-(3-Chloro-4-fluorophenyl)-2-methyl-5-(4-(thiazol-5-yl)thiophen-2-yl)-1,2,6-thiadiazinane-3-carboxamide 1,1-dioxide]",< 1000 nM
18,"CN1[C@H](C(=O)Nc2ccc(F)c(Cl)c2)C[C@H](c2ccc(-c3cnn(C)c3)s2)NS1(=O)=O [HBV-CSU-161-ISO-I, Cis-N-(3-chloro-4-fluorophenyl)-2-methyl-5-(5-(1-methyl-1H-pyrazol-4-yl)thiophen-2-yl)-1,2,6-thiadiazinane-3-carboxamide 1,1-dioxide]",< 1000 nM
19,"CC(C)n1cc(-c2csc([C@H]3C[C@@H](C(=O)Nc4ccc(F)c(Cl)c4)N(C)S(=O)(=O)N3)c2)cn1 [HBV-CSU-295-ISO-I, Cis-N-(3-chloro-4-fluorophenyl)-5-(4-(1-isopropyl-1H-pyrazol-4-yl)thiophen-2-yl)-2-methyl-1,2,6-thiadiazinane-3-carboxamide 1,1-dioxide]",< 1000 nM
20,"CN1[C@@H](C(=O)Nc2ccc(F)c(Cl)c2)C[C@@H](c2ccc(-c3ccc(C(F)(F)F)nc3)s2)NS1(=O)=O [HBV-CSU-158-ISO-II, Cis-N-(3-chloro-4-fluorophenyl)-2-methyl-5-(5-(6-(trifluoromethyl)pyridin-3-yl)thiophen-2-yl)-1,2,6-thiadiazinane-3-carboxamide 1,1-dioxide]",> 5000 nM
21,"CN1[C@H](C(=O)Nc2ccc(F)c(Cl)c2)C[C@H](c2ccsn2)NS1(=O)=O [HBV-CSU-056-ISO-I, Cis-N-(3-chloro-4-fluorophenyl)-5-(isothiazol-3-yl)-2-methyl-1,2,6-thiadiazinane-3-carboxamide 1,1-dioxide]",< 1000 nM
22,"CN1C(C(=O)Nc2ccc(F)c(Cl)c2)CC(c2cc(-c3ccc(C#N)c(F)c3)cs2)NS1(=O)=O (racemic) [HBV-CSU-164, Cis-N-(3-chloro-4-fluorophenyl)-5-(4-(4-cyano-3-fluorophenyl)thiophen-2-yl)-2-methyl-1,2,6-thiadiazinane-3-carboxamide 1,1-dioxide]",< 1000 nM
